Reference: US20150211028A1, “Production of 1,3-Propanediol in Cyanobacteria” (Algenol Biofuels Inc., priority 2013, published 2015)

Assays:
[1] = system: Synechococcus sp. PCC 7002; assay: Tolerance testing: growth (OD750) after a one time bolus of 1,3-propanediol; type: cell-based; conditions: OD750 monitored for one week
Source text: (§1) The tolerance of cyanobacterial strains Synechocystis sp. PCC 6803 and Synechococcus sp. PCC 7002 to the presence of accumulated 1,3-propanediol in the culture medium was examined by adding a one time bolus of varying amounts of 1,3-propanediol (ranging from 0.05% to 5%) to exponential phase cultures and comparing the growth of these cultures to a wild type culture with no addition. Growth was monitored by optical density (OD750) for one week. There was no effect on the growth of Synechocystis sp. PCC 6803 in the presence of up to 1% 1,3-propanediol compared to the control (no addition of 1,3-propanediol). […] At 5% 1,3-propanediol, Synechocystis sp. […] There was no effect on the growth of Synechococcus sp. PCC 7002 with up to 1% 1,3-propanediol addition.

[2] = system: Synechocystis sp. PCC 6803; assay: as above; type: cell-based; conditions: OD750 monitored for one week
Source text: as §1

OCCCO [1,3-propanediol]
survival of the culture ([1]; 2% 1,3-propanediol addition): lethal resulting in a completely bleached culture | effect on growth compared to the control ([1]; up to 1% 1,3-propanediol addition, exponential phase culture): no effect | effect on growth compared to the control ([2]; 2% and 3% 1,3-propanediol in culture medium): inhibition effect resulting in a yellowing discoloration of the culture, slower growth and clumping | survival of the culture ([2]; 5% 1,3-propanediol in culture medium): could not survive and bleached out after 3 days | effect on growth compared to the control ([2]; up to 1% 1,3-propanediol in culture medium, exponential phase culture): no effect
